Laboratory results as given in paper PMC8528301 (PLoS ONE, 2021).
Values joined by “and” are separate entries in the source; they are usually repeats but may differ in a detail not shown here. Equal values may be shown once. Read-outs that look alike come from different tables or passages of the source.

What was measured:
[1] = Dasatinib disposition in bile duct cannulated rats (literature); format: in vivo, rat
[2] = tested on: CYP3A4; details: in vitro metabolic studies; humans; cited from earlier work
[3] = oral dosing; monkeys; cited from earlier work
[4] = tested on: CYP3A4; set-up: method as in PMID 19282395; details: cited from earlier work
[5] = cited from earlier work; for Tmax: oral dosing
[6] = bile duct cannulated rats; no reference given; cited from earlier work
[7] = tested on: GCR; details: read-out: GCR EC50; printed in Fig 9; ref J Biol Chem. 2002 Jan 11; PMID: 11682470; cited from earlier work
[8] = tested on: PXR; details: cited from earlier work
[9] = DEX single oral gavage plasma pharmacokinetics (NLME modeling); details: for DV (Dex oral gavage PK raw data): individual mice;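 as to all read-outs here: plasma concentration-time data analysed by nonlinear mixed-effects modeling in Monolix with SAEM estimation, models built on apparent clearance, distribution volume and absorption rate constant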
Experimental: Blood was collected via saphenous/retro-orbital vein at time points: 0.25, 0.75, 0.5, 1, 1.5, 2, 4, 8, 16 hours after treatment. Three sets of mice were used for this experiment, where set 1 was sampled at 2,4,8 hr; set 2 at 0.25, 0.75, 1.5 hr; set 3 at 0.5, 1 and 16 hr. Samples were centrifuged at 10,000 rpm for 2 minutes, plasma was removed and stored at -80°C until further analysis.
Briefly, parameters and the Fisher Information Matrix (FIM) were estimated using the stochastic approximation expectation maximization (SAEM) algorithm, and the final log-likelihood estimated with importance sampling, all using the default Monolix initial settings, except that 1000 iterations were permitted for estimation of FIM using stochastic approximation. A variety of models were fit to the respective compound’s Ct data, parameterized using apparent clearances, volumes of distribution, and absorption rate constant as needed. […] A log-normal inter-individual and inter-occasion parameter distribution was assumed on selected supported parameters, with both on- and off-diagonal elements of parameter covariance matrices tested. Additive and/or proportional error models were tested and implemented as supported. Beal’s M3 method was used to fit any data that were below the LLOQ or above the upper limit of the assay range [20]. […] Additionally, Wald test P values were outputted for each covariate effect by the Monolix software.
Additionally, Wald test P values were outputted for each covariate effect by the Monolix software.

[10] = tested on: BCR-ABL Arf-/- Luc+ ALL cells; experiment: Survival study of mice with BCR-ABL Arf-/- leukemia on discontinuous DEX regimen; format: in vivo, mouse; details: for median survival time: BCR-ABL Arf-/- ALL, discontinuous DEX
From the text: Murine BCR-ABL Arf^-/- Luc^+ ALL cells were created by Dr. Charles Sherr (St. Jude Children’s Research Hospital) and provided immediately prior to mouse injection by the laboratory of Dr. Mary Relling (St. Jude Children’s Research Hospital). The cells had been tested for mycoplasma and were authenticated by flow cytometry for cell surface markers, tested for their leukemia-inducing capabilities with serial dilutions of cell numbers (from 2 million down to 2,000 cells), and ensured that the cells with the luciferase constructs produced light when combined with luciferin. Only cells from early passage (P3-P15) were used for these experiments. The St Jude Children’s Research Hospital Institutional Biosafety Committee and IACUC approved the use of these cells for injection into mice. C57BL/6 VD3 sufficient (n = 24) and deficient (n = 22) male mice (8–18 wk of age) were anaesthetized using isoflurane and injected iv with 2,000 BCR-ABL Arf^-/- Luc^+ ALL cells on day zero. […] Xenogen IVIS-200 (Caliper Life Sciences, Hopkinton, MA) was used to acquire bioluminescent images 5 minutes post-intra peritoneal injection of 200 μL of 100 mg/kg D-Luciferin (Caliper Life Sciences, Hopkinton, MA). Mice were anaesthetized with isoflurane during this procedure. The bioluminescent signal (photons/s) from a fixed region of interest (ROI) is used to monitor the disease progression twice every week. Images acquired here were analyzed using Living Image 3.1 software (Caliper Life Sciences), where whole body luciferase flux measurements (photons/s) were quantified as disease burden. Animal Welfare: All efforts were taken to minimize suffering and distress in the survival studies. […] All other mice in the survival study were euthanized within hours of reaching the humane end point/end of study = moribund for any reason which was determined based on hind limb paralysis (very typically observed in mice with BCR-ABL ALL), scruffy coat, lethargy or an inability to obtain food or water (SJ IACUC protocol #100468–613). A portion of spleen and hind limb were fixed, paraffin embedded, cut, and slides stained with hematoxylin and eosin and evaluated by a St Jude Pathologist (Dr. Laura Janke) to confirm leukemia was the cause of death.

## Cc1nc(Nc2ncc(C(=O)Nc3c(C)cccc3Cl)s2)cc(N2CCN(CCO)CC2)n1 [dasatinib]
[1]; bile duct cannulated rats, inferred from unchanged drug
  percentage absorbed: 67%
[1]; rats
  share of absorbed drug that might undergo hepatic metabolism: 60%
  share of total drug that might undergo hepatic metabolism: at least 40%
[2]
  share of dasatinib metabolized by CYP3A4: 98%
[3]
  Tmax: 36 min
[4]
  K(inact), CYP3A4 mechanism-based inactivation: 0.034 min (-1)
[4]; read-out: K(I), CYP3A4 mechanism-based inactivation
  KI (inactivation): 6.3 µM
[5]; mice
  bioavailability: 17%
[5]; one study, species not given
  bioavailability: 45–51%
[5]; Mdr1a wild-type and KO mice
  Tmax: 15 min
[5]; nude female nude mice
  Tmax: 120 min
[6]
  oral bioavailability: 27%
  percentage of unchanged drug in the gastrointestinal tract: 33%

## C[C@@H]1C[C@H]2[C@@H]3CCC4=CC(=O)C=C[C@]4(C)[C@@]3(F)[C@@H](O)C[C@]2(C)[C@@]1(O)C(=O)CO [DEX, dexamethasone]
[7]
  EC50: 0.011 µM
[8]; printed in Fig 9, ref Kliewer SA, et al. Cell. 1998
  EC50: 30 µM
[8]; relatively weak PXR agonist, no reference given, read-out: Kd as PXR agonist
  Kd: ~30 µM
[9]; single oral gavage
  estimated Cgut (gut concentration): 200 µM
[9]; single oral gavage 2 mg/kg DEX phosphate, regardless of VD3 status
  higher CL/F in males vs females: ~ 25%
[9]; single oral gavage 2 mg/kg dexamethasone phosphate, 14 weeks
  lower AUC values in males vs females: approximately 25%
[9]; single oral gavage, regardless of VD3 status
  apparent oral clearance (CL/F), male vs female: 1.26 fold
[9]; time 0.25, SEX:F, VD3_DEF:0
  DV (Dex oral gavage PK raw data): 907.64 and 982.88
[9]; time 0.25, SEX:M, VD3_DEF:0
  DV (Dex oral gavage PK raw data): 359.52 and 381.14 and 918.28 and 295.91
[9]; time 0.5, SEX:F, VD3_DEF:0
  DV (Dex oral gavage PK raw data): 300.45 and 875.91 and 827.78 and 1011.08 and 796.28
[9]; time 0.5, SEX:M, VD3_DEF:0
  DV (Dex oral gavage PK raw data): 854.61 and 443.3 and 391.17 and 812.36 and 581.49
[9]; time 0.75, SEX:F, VD3_DEF:0
  DV (Dex oral gavage PK raw data): 593 and 696.57 and 716.27
[9]; time 0.75, SEX:M, VD3_DEF:0
  DV (Dex oral gavage PK raw data): 319 and 407.15 and 712.45 and 358.52
[9]; time 1, SEX:F, VD3_DEF:0
  DV (Dex oral gavage PK raw data): 323.98 and 614.7 and 559.39 and 858.7 and 572.77
[9]; time 1, SEX:M, VD3_DEF:0
  DV (Dex oral gavage PK raw data): 871.76 and 446.29 and 284.95 and 564.36 and 379.97
[9]; time 1.5, SEX:F, VD3_DEF:0
  DV (Dex oral gavage PK raw data): 400.31 and 458.1 and 520.89
[9]; time 1.5, SEX:M, VD3_DEF:0
  DV (Dex oral gavage PK raw data): 262.55 and 317.69 and 754.41 and 324.39
[9]; time 2, SEX:F, VD3_DEF:0
  DV (Dex oral gavage PK raw data): 620.12 and 492.72 and 552.22 and 715.36
[9]; time 2, SEX:M, VD3_DEF:0
  DV (Dex oral gavage PK raw data): 450.54 and 344.89 and 388.67 and 378.66 and 784.19
[9]; time 2, SEX:M, VD3_DEF:1
  DV (Dex oral gavage PK raw data): 453.95 and 476.24
[9]; time 4, SEX:F, VD3_DEF:0
  DV (Dex oral gavage PK raw data): 375.42 and 312.44 and 291.92 and 312.42 and 297.86
[9]; time 4, SEX:M, VD3_DEF:0
  DV (Dex oral gavage PK raw data): 215.15 and 191.38 and 191.07 and 239.97 and 623.74
[9]; time 4, SEX:M, VD3_DEF:1
  DV (Dex oral gavage PK raw data): 214.6 and 240.73 and 185.34
[9]; time 8, SEX:F, VD3_DEF:0
  DV (Dex oral gavage PK raw data): 121.36 and 89.26 and 221.1 and 152.45 and 67.95
[9]; time 8, SEX:M, VD3_DEF:0
  DV (Dex oral gavage PK raw data): 74.87 and 61.36 and 52.11 and 112.04 and 269.34
[9]; time 8, SEX:M, VD3_DEF:1
  DV (Dex oral gavage PK raw data): 66.26 and 72.8
[9]; time 16, SEX:F, VD3_DEF:0
  DV (Dex oral gavage PK raw data): 29.97 and 65.92 and 14.35 and 7.95 and 53.43
[9]; time 16, SEX:M, VD3_DEF:0
  DV (Dex oral gavage PK raw data): 18.43 and 25.62 and 92.79 and 13.68 and 19.85
[10]; DEX-treated VD3 deficient male mice
  median survival time: 59 days
[10]; DEX-treated VD3 sufficient male mice
  median survival time: 36 days
[10]; VD3 Deficient, days survived 0
  Survival proportions: 100
[10]; VD3 Deficient, days survived 22
  Survival proportions: 90.5
[10]; VD3 Deficient, days survived 24
  Survival proportions: 85.7
[10]; VD3 Deficient, days survived 32
  Survival proportions: 81
[10]; VD3 Deficient, days survived 36
  Survival proportions: 76.2
[10]; VD3 Deficient, days survived 38
  Survival proportions: 71.4
[10]; VD3 Deficient, days survived 48
  Survival proportions: 61.9
[10]; VD3 Deficient, days survived 55
  Survival proportions: 57.1
[10]; VD3 Deficient, days survived 59
  Survival proportions: 47.6
[10]; VD3 Sufficient, days survived 0
  Survival proportions: 100
[10]; VD3 Sufficient, days survived 15
  Survival proportions: 90.9
[10]; VD3 Sufficient, days survived 22
  Survival proportions: 86.4
[10]; VD3 Sufficient, days survived 23
  Survival proportions: 81.8
[10]; VD3 Sufficient, days survived 25
  Survival proportions: 72.7
[10]; VD3 Sufficient, days survived 32
  Survival proportions: 63.6
[10]; VD3 Sufficient, days survived 34
  Survival proportions: 59.1
[10]; VD3 Sufficient, days survived 35
  Survival proportions: 54.5
[10]; VD3 Sufficient, days survived 37
  Survival proportions: 45.5
[10]; VD3 Sufficient, days survived 38
  Survival proportions: 40.9
[10]; VD3 Sufficient, days survived 48
  Survival proportions: 27.3
[10]; VD3 Sufficient, days survived 55
  Survival proportions: 22.7
[10]; VD3 Sufficient, days survived 59
  Survival proportions: 18.2
